The text below walks through data of paper PMC11109052, “Metabolism characterization and toxicity of N-hydap, a marine candidate drug for lung cancer therapy by LC–MS method” (Natural Products and Bioprospecting, 2024).

Usually Km stands for the concentration of substrate that gives half-maximal velocity.

Series [1] is described as follows: Pharmacokinetics studies in mice (plasma). It counts as in vivo. The following applies: mice. On the procedure: Mice were fasted for 12 h with access to water before drug administration. N-Hydap was dissolved in a solution containing 50% methanol and water. Before administration, the drug was diluted with PBS to achieve concentrations of 5 mg/kg and 2 mg/kg for gastric gavage and tail vein administration, respectively. Blood samples (120 μL) were collected from the orbital venous plexus at 2, 5, 10, 15, 30, 60, 90, 120, 180, and 240 min after N-hydap administration. The blood samples were collected into heparinized micro-centrifuge tubes and immediately centrifuged at 8000 rpm for 5 min at 4 °C. Plasma samples were prepared by adding an internal standard (IS) solution, Tes to the samples, followed by vortexing. The mixtures were then centrifuged at 4 °C and 13,000 rpm for 15 min. The resulting supernatant was dried under vacuum for 3–4 h, and the dry powder was reconstituted with a solution of 50% methanol and water. Finally, the plasma samples were analyzed using LC–MS, following the previously described method.
DAS 2.0 was used to calculate pharmacokinetic parameters using the standard non-compartmental method. All results were presented as mean ± standard deviation and significant differences were analyzed using One-way ANOVA by GraphPad Prism 8. Statistical significance was defined as p < 0.05.

Another series has as its system RLMs. Description: Kinetics of N-hydap glucuronidation in RLMs. In kind it is in vitro ADME, rat. The following applies: RLM. On the procedure:
(§1) In this study, the rats were executed by drawing blood from the abdominal aorta and mice were sacrificed with cervical dislocation before the liver and kidneys were excised. The liver and kidneys were removed, and washed with chilled cleansing solution (contains 8 mM KH2PO4, 5.6 mM EDTA·K2·2H2O, 1 mM DTT and 229.6 μM PMSF), homogenized in a tissue homogenate buffer with a pH of 7.4, (consisting of […], 8 mM K2HPO4, 250 mM sucrose, 1 mM EDTA·K2·2H2O and 229.6 μM PMSF). Subsequently, the homogenate was centrifuged at 10,400 rpm at 4 °C for 15 min, and the supernatant was then centrifuged at 35,000 rpm at 4 °C for 60 min. A 250 mM sucrose buffer was added to the pellet to reconstitute and the resuspension was stored at − 80 °C until use. Microsome protein concentrations were measured by Omni-Easy™ Instant BCA Protein Assay Kit.
(§2) Various microsomes including HLMs, HKMs, HIMs, RLMs, RKMs, MLMs and MKMs were involved in CYP and UGT reactions of N-hydap. […]
(§3) The substrate concentrations used for HLMs were 0.05, 0.5, 2, 2.5, 5, 10, 25, 50, and 100 μM. […] The rates of N-hydap-G by enzymes were expressed as nmol/mg/min, representing the amount of metabolites formed per minute per milligram of protein. Kinetic parameters were determined by analyzing the Eadie–Hofstee plots. […]

Another series deals with T1, UGT1A1 (Homo sapiens, UniProt P22309).
T1 construct: purchased Cypex (Scotland, UK)
Description: Kinetics of N-hydap glucuronidation by recombinant UGT1A1. In kind it is in vitro ADME.

The test system of the next series is HLMs. Nature of the series: Kinetics of N-hydap glucuronidation in HLMs. The following applies: HLM. It counts as in vitro ADME, human. The procedure: (§4) Various microsomes including HLMs, HKMs, HIMs, RLMs, RKMs, MLMs and MKMs were involved in CYP and UGT reactions of N-hydap. A typical CYP incubation mixture included 0.5 mg/mL microsomes protein, 3.3 mM glucose-6-phosphate, 3.3 mM MgCl2, 0.4 U/mL glucose-6-phosphate dehydrogenase, and N-hydap (1, 2.5, or 10 μM) in the 50 mM potassium phosphate buffer (KPI, pH 7.4). The incubation mixture was preincubated at 37 °C for 5 min, and the reaction was started by adding NADP to form a NADPH-regenerating system. Simultaneously, the classic UGT reaction system consisted of 50 mM KPI, 5 mM MgCl2, 0.5 mg/mL microsomes, 0.125 mg/mL alamethicin, and 5.25 mg/mL saccharolactone. The reaction was initiated after supplying UDPGA. The CYP and UGT mixtures were incubated at 37 °C in a shaking water bath (80 rpm) for 1.5 h to enhance metabolite formation. To terminate the reaction, an ice-cold solution of Tes (50 ng/mL, dissolved in methanol and used as an internal standard) was added to half of the mixture volume. […]
as §3

Another series relates to HIMs. Nature of the series: Kinetics of N-hydap glucuronidation in HIMs. In kind it is in vitro ADME, human. The following applies: HIM. On the procedure: as §4, §3
For another series, the target named is T2, UGT1A3 (Homo sapiens, UniProt P35503).
T2 construct: purchased Cypex (Scotland, UK)
Nature of the series: Kinetics of N-hydap glucuronidation by recombinant UGT1A3. In kind it is in vitro ADME.

The next series deals with other UGT isoforms. Nature of the series: Incubation with recombinant human UGT isoforms: other isoforms. In kind it is in vitro ADME. The following applies: recombinant UGT 2 μg/mL. On the procedure: Incubation of N-hydap (2.5 μM) with eight recombinant human CYP enzymes (CYP1A2, CYP2B6, CYP2C9, CYP2C19, CYP2D6, CYP3A4, CYP4A11 and CYP4F2) at three enzyme concentrations (2, 4, and 20 μg/mL) was conducted following the same procedure as described above for microsomes. Subsequently, incubation with N-hydap (1, 2.5, and 6 μM) and twelve recombinant human UGT isoforms (UGT1A1, UGT1A3, UGT1A4, UGT1A6, UGT1A7, UGT1A8, UGT1A9, UGT1A10, UGT2B4, UGT2B7, UGT2B15 and UGT2B17) was performed, with the enzyme concentration used at 2 μg/mL. All reactions were carried out in triplicate.

Another series deals with MLMs. Nature of the series: Kinetics of N-hydap glucuronidation in MLMs. In kind it is in vitro ADME, mouse. The following applies: MLM. The procedure: as §1, §2, §3
The nature of series [2]: Distribution studies in mice organs. In kind it is in vivo. The following applies: 30 min and 4 h. On the procedure:
The heart, liver, spleen, lungs and kidneys were removed from mice after administering a dose of 5 mg/kg through oral gavage and 2 mg/kg through tail vein injection at 30 min and 240 min, followed by homogenization with normal saline. The resulting homogenate was centrifuged at 4 °C, 13,000 rpm for 20 min, and the supernatant was then mixed with the internal standard by vortexing. The mixtures were centrifuged at 4 °C, 13,000 rpm for 15 min. The resulting supernatant was then subjected to vacuum drying for 3–4 h. Lastly, the dried powder was reconstituted with a mixture of 50% methanol and water, and then centrifuged for LC–MS testing.

The subject of a further series is HKMs. Nature of the series: Kinetics of N-hydap glucuronidation in HKMs. In kind it is in vitro ADME, human. The following applies: HKM. On the procedure: as §4, §3
A further series has as its system RKMs. Description: Kinetics of N-hydap glucuronidation in RKMs. The following applies: RKM. It counts as in vitro ADME, rat. The procedure:
as §1, §2, §3

The next series concerns MKMs. Nature of the series: Kinetics of N-hydap glucuronidation in MKMs. It counts as in vitro ADME, mouse. The following applies: MKM. On the procedure:
as §1, §2, §3

Details of series [3]: method as in PMID 17513814. The following applies: 2nd-line therapy of SCLC; cited from earlier work.
A further series relates to SCLC. More on the design: method as in PMID 33683919. The following applies: 3rd-line therapy of SCLC; cited from earlier work.
Substrate in series [4]: CC1CCC2C(C=CC(C)C2C(=O)c2c(O)c(C3(O)CCC(O)C4OC43)cn(O)c2=O)C1
Nature of the series: Kinetics of N-hydap glucuronidation by recombinant UGT1A3. In kind it is in vitro ADME, human. The following applies: other: glucuronidation, pH 7.4, 37.0 °C.

Substrate in series [5]: CC1CCC2C(C=CC(C)C2C(=O)c2c(O)c(C3(O)CCC(O)C4OC43)cn(O)c2=O)C1
Description: Kinetics of N-hydap glucuronidation by recombinant UGT1A1. In kind it is in vitro ADME, human. The following applies: other: glucuronidation, pH 7.4, 37.0 °C.

Regarding `CC1CCC2C(C=CC(C)C2C(=O)c2c(O)c(C3(O)CCC(OC4OC(C(=O)O)C(O)C(O)C4O)C4OC43)cn(O)c2=O)C1` (stereo not shown) [N-hydap-G], the “highest concentration in plasma, Rate (Am/Ai)” value in [1] (after oral administration of N-hydap 5 mg/kg) is given as 1.632; in [1] (after tail vein injection of N-hydap 2 mg/kg) it was 0.085. The “maximum plasma concentration after oral gavage relative to intravenous injection, dose-corrected” value in series [1] (1.632/0.085/2.5) turned out to be 7.68 times. Besides, the Vmax in the series with RLMs worked out at 0.0567 ± 0.0014 peak area ratio/min/mg; at UGT1A1, 4.596 ± 0.37 peak area ratio/min/mg; in the series with HLMs, 5.126 ± 1.27 peak area ratio/min/mg; with HIMs, 1.020 ± 0.066 peak area ratio/min/mg; on UGT1A3, 10.07 ± 0.98 peak area ratio/min/mg; in the series on MLMs it was 13.46 ± 1.32 peak area ratio/min/mg. In addition, the Vmax is given as 7.210 ± 0.72 peak area ratio/min/mg in the series on HKMs, 0.8051 ± 0.052 peak area ratio/min/mg in the series on RKMs and 3.313 ± 0.51 peak area ratio/min/mg in the series on MKMs. For the same molecule, the “glucuronide detected after incubation with other UGT isoforms” value with other UGT isoforms was “negligible amount”. Also, the “total distribution ratio, heart” value was determined as 2.61% in series [2] (oral 5 mg/kg) and 11.92% in [2] (tail vein injection 2 mg/kg). The “total distribution ratio, kidneys” value in series [2] (oral 5 mg/kg) is on record as 17.64%; in [2] (tail vein injection 2 mg/kg) it was 16.73%. Besides, the “total distribution ratio, liver” value in series [2] (oral 5 mg/kg) came to 70.86%; in [2] (tail vein injection 2 mg/kg) it was 56.90%. For the same molecule, the “total distribution ratio, lungs” value in [2] (oral 5 mg/kg) was 7.33%; in series [2] (tail vein injection 2 mg/kg), 9.14%. Moreover, the “total distribution ratio, spleen” value came to 1.56% in [2] (oral 5 mg/kg) and 5.31% in [2] (tail vein injection 2 mg/kg).

Turning to `CC[C@@]1(O)C(=O)OCc2c1cc1n(c2=O)Cc2cc3c(CN(C)C)c(O)ccc3nc2-1` [topotecan], in series [3], the “grade 3/4 anemia” value is 31%, the neutropenia is on record as 64% and the thrombocytopenia is 18%.

nivolumab: 3rd-line therapy for SCLC: the overall survival entry in the series with SCLC is “does not prolong overall survival”.

B1: UGT1A3 (Homo sapiens) (protein)
chain: GKVLVVPIDGSHWLSMREVLRELHARGHQAVVLTPEVNMHIKEENFFTLTTYAISWTQDEFDRHVLGHTQLYFETEHFLKKFFRSMAMLNNMSLVYHRSCVELLHNEALIRHLNATSFDVVLTDPVNLCAAVLAKYLSIPTVFFLRNIPCDLDFKGTQCPNPSSYIPRLLTTNSDHMTFMQRVKNMLYPLALSYICHAFSAPYASLASELFQREVSVVDILSHASVWLFRGDFVMDYPRPIMPNMVFIGGINCANRKPLSQEFEAYINASGEHGIVVFSLGSMVSEIPEKKAMAIADALGKIPQTVLWRYTGTRPSNLANNTILVKWLPQNDLLGHPMTRAFITHAGSHGVYESICNGVPMVMMPLFGDQMDNAKRMETKGAGVTLNVLEMTSEDLENALKAVINDKSYKENIMRLSSLHKDRPVEPLDLAVFWVEFVMRHKGAPHLRPAAHDLTWYQYHSLDVIGFLLAVVLTVAFITFKCCAYGYRKCLGKKGRVKKAHKSKTH
notes: purchased Cypex (Scotland, UK)
For B1, in [4], the Km was 10.68 µM and the Vmax/Km is 942.9 µL/min/mg.

B2: UGT1A1 (Homo sapiens) (protein)
chain: HAGKILLIPVDGSHWLSMLGAIQQLQQRGHEIVVLAPDASLYIRDGAFYTLKTYPVPFQREDVKESFVSLGHNVFENDSFLQRVIKTYKKIKKDSAMLLSGCSHLLHNKELMASLAESSFDVMLTDPFLPCSPIVAQYLSLPTVFFLHALPCSLEFEATQCPNPFSYVPRPLSSHSDHMTFLQRVKNMLIAFSQNFLCDVVYSPYATLASEFLQREVTVQDLLSSASVWLFRSDFVKDYPRPIMPNMVFVGGINCLHQNPLSQEFEAYINASGEHGIVVFSLGSMVSEIPEKKAMAIADALGKIPQTVLWRYTGTRPSNLANNTILVKWLPQNDLLGHPMTRAFITHAGSHGVYESICNGVPMVMMPLFGDQMDNAKRMETKGAGVTLNVLEMTSEDLENALKAVINDKSYKENIMRLSSLHKDRPVEPLDLAVFWVEFVMRHKGAPHLRPAAHDLTWYQYHSLDVIGFLLAVVLTVAFITFKCCAYGYRKCLGKKGRVKKAHKSKTH
notes: as for B1
Consider B2, for which, in [5], the Km stood at 46.43 µM and the Vmax/Km is 99.0 µL/min/mg.
